Source: US7141560B2, “Alanine 2,6-dialkoxyphenyl ester derivatives as hypnotics” (Akzo Nobel N.V., priority 2001, dated 2006)

System: mice
Assay: Hypnotic activity: loss of righting reflex after intravenous injection in mice
Format: in vivo
Settings: intravenous injection over 10 seconds, dose causing loss of righting reflex for minimum 30 seconds in 50% of treated mice

Compound	HD50 (hypnotic dose50)	ED50 (Mus musculus, read-out: HD50 (hypnotic dose50))
COCCC(C(=O)Oc1c(OC)cccc1OC)N1CCCOCC1 (stereo not drawn) [Example 51a, (ξ)-2-[4-(Hexahydro-1-oxazepinyl)]-4-methoxybutyric acid,2,6-dimethoxyphenyl ester]	15 µmol/kg	
COCCC(C(=O)Oc1c(OC)cccc1OC)N1CCCOCC1 (stereo not drawn) [Example 51b, (ξ)-2-[4-(Hexahydro-1-oxazepinyl)]-4-methoxybutyric acid,2,6-dimethoxyphenyl ester]	30 µmol/kg	
COCCN(CCOC)C(COC)C(=O)Oc1c(OC)cc(C)cc1OC (stereo not drawn) [Example 51c, (ξ)-2-[N-Bis(2-methoxyethyl)amino]-3-methoxypropionic acid, 2,6-dimethoxy-4-methylphenyl ester]	24 µmol/kg	
COCCN(CCOC)C(COC)C(=O)Oc1c(OC)cc(C)cc1OC (stereo not drawn) [Example 51d, (ξ)-2-[N-Bis(2-methoxyethyl)amino]-3-methoxypropionic acid, 2,6-dimethoxy-4-methylphenyl ester]	36 µmol/kg	
COC[C@H](C(=O)Oc1c(OC)cccc1OC)N1CCCOCC1 [Example 52a, 2R-[4-(Hexahydro-1-oxazepinyl)]-3-methoxypropionic acid, 2,6-dimethoxyphenyl ester]		16 µmol/kg
COC[C@@H](C(=O)Oc1c(OC)cccc1OC)N1CCCOCC1 [Example 52b, 2S-[4-(Hexahyro-1-oxazepinyl)]-3-methoxypropionic acid ,2,6-dimethoxyphenyl ester]	40 µmol/kg	
